Test results as given in patent US9573907B2, “2, 4-pyrimidine derivatives and use thereof” (SNU R&DB FOUNDATION, priority 2009, dated 2017).
pKd: −log10 of the molar value. “Also recorded” adds a separate entry of the source.

Legend:
gp96 = gp96 (Homo sapiens, UniProt P14625); test: ATPase activity of gp96 (ATPase assay kit); assay type: biochemical; settings: 0 vs. 100 μM
Experimental: FIG. 22 represents the effect of point mutations on the ATPase activity of gp96. (a) The effect of gp96 point mutations on its ATPase activity was examined using ATPase assay kit (Innova Biosciences, Cambridge, UK). One unit is the amount of enzyme that catalyzes the reaction of 1 μmol of substrate per minute. The enzymatic activity was calculated according to manufacturer's instruction.
FIG. 23 represents the effect of GPM1 on the ATPase activity gp96. (a) The dose-dependent effect of GPM1 on the ATPase activity.

gp96 V706A/L707A = target: T1, gp96 V706A/L707A (Homo sapiens, UniProt P14625, L711A/V710A); test: Surface plasmon resonance, GPM1 binding to gp96 mutant V706A/L707A
T1 construct: made in house; host or cells: Escherichia coli BL21 (DE3)
T1 sequence (P14625 22-803 V710A/L711A): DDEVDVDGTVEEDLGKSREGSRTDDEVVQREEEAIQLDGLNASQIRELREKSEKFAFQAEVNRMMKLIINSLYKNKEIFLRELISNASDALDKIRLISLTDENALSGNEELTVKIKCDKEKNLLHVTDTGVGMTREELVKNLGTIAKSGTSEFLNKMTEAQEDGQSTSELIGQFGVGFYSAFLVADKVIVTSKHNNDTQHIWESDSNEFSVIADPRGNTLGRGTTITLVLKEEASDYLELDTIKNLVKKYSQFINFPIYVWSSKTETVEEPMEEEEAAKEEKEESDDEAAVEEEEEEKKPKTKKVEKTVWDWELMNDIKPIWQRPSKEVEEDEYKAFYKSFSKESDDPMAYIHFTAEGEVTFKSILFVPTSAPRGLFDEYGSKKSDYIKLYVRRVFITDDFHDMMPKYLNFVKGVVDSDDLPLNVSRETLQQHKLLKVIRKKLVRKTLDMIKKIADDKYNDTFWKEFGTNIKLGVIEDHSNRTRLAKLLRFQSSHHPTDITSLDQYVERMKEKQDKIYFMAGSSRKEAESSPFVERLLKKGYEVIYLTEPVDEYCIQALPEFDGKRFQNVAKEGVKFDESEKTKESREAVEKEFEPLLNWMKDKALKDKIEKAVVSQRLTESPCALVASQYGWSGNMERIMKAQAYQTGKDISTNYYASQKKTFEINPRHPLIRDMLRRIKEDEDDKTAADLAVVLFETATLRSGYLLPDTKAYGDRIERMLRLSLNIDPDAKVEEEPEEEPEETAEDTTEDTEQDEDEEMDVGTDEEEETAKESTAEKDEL
Experimental: Human gp96 was expressed as His tag fusion protein in Escherichia coli BL21 (DE3) and purified by nickel affinity chromatography. His-tagged human gp96 was immobilized onto CM5 sensor chips using standard amine coupling2. PBS was used as a running buffer. The carboxymethyl dextran surface within one side of the flow cell was activated with a 7-min injection of a 1:1 ratio of 0.4M EDC and 0.1M NHS. The protein was coupled to the surface with a 7-min injection of gp96 diluted in 10 mM sodium acetate, pH 3.7. Remaining activated groups were blocked with a 7-min injection of 1.0M ethanolamine, pH 8.5. GPM1 compound was dissolved directly in the PBS running buffer containing 1% DMSO and injected at a flow rate of 20 μl/min at 25° C. and the binding was determined by the change in resonance units (RU). The compound concentration varied from 10 nM to 25 μM and each concentration was tested at least three times. All of the bound complexes dissociated back to baseline within a reasonable time frame. Therefore, no regeneration was required. Sensorgram was processed by subtracting the binding response recorded from the control surface, followed by subtracting an average of the buffer blank injections from the reaction spot. To determine kinetic rate constants, all data sets were fit to a simple 1:1 binding with drifting baseline model using BIAevaluation program.
The present inventors compared the dose-dependent effect of GPM1 and NC1 on the interaction of gp96 and AIMP1 using ELISA. […] The present inventors monitored the binding kinetics of GPM1 to gp96 or AIMP1 by surface plasmon resonance (SPR) using BIAcore 3000. […] To further define the GPM1 binding region of gp96 (Han, J. M., Park, S. G., Liu, B., Park, B. J., Kim, J. Y., Jin, C. H., Song, Y. W., Li, Z. & Kim, S. Am. J. Pathol. 170, 2042-2054 (2007)), the present inventors introduced point mutations at L707, V706, V712, L713, F714, Y731 and M738 that are located within AIMP1 binding region of gp96 and monitored how the mutations at these sites would affect the binding of GPM1 to gp96 using SPR method.

Sequence of gp96 (P14625 22-803): as the sequence (P14625 22-803 V710A/L711A) above, with A689V, A690L counted along it

For `COC(=O)[C@@H](Oc1nc(OC)cc(OC)n1)C(C)C` [GPM1, (S)-methyl 2-(4,6-dimethoxypyrimidin-2-yloxy)-3-methylbutanoate], the “effect on the gp96 ATPase activity” value (gp96) was “little effect; also recorded: did not affect”, the pKd (gp96 V706A/L707A) was 7.05 and the “koff (dissociation rate constant)” value (gp96 V706A/L707A) was 0.0102 s⁻¹. It also gave a kon (gp96 V706A/L707A; read-out: Ka) of 115000 M⁻¹ s⁻¹.
